Measured values published in patent publication US11447477B2, “Indoleamine-2,3-dioxygenase inhibitor, the preparative method and the use thereof” (HINOVA PHARMACEUTICALS INC., priority 2017, dated 2022).

Tests used:
human IDO1 protease = human IDO1 protease (Homo sapiens (Human), UniProt P14902); experiment: Inhibitory activity against human IDO1 protease (absorbance test method); format: biochemical; conditions: IDO1 (His-tag) enzyme, absorbance at 320 nm
Description: 1) Experimental Materials and Apparatus: • IDO1 (His-tag) enzyme (BPS Bioscience) • L-tryptophan (Sigma) • Methylene blue (Sigma) • Catalase originated from the liver of cattle (Sigma) • L-ascorbic acid (Sigma) • Glycerol (Sigma) • Potassium dihydrogen phosphate solution (Sigma) • Tween 20 (Sigma) • Automatic sampling platform Liquid handler (Bravo & Echo) • Microplate Reader SpectraMax M5e (Molecular Devices)
2) Test Method of Compounds: The Compounds are Determined by Absorbance Test Method:
The tested compounds and the reference compounds are dissolved in DMSO to prepare a high concentration of storage solution. The stock solution of reference compound was diluted with DMSO to prepare a 100× solution. In the first column of the working plate, 8 μL above tested compounds and 8 μL 100× reference compound were respectively added as the highest concentration, and then the highest concentrations were subjected to three times dilution to obtain 11 concentrations and prepare 100× solution. 0.5 μL solution was transferred from the above plate to the detection plate. […]. For HPE and ZPE control wells, 0.5 μL 100% DMSO was added.
25 μL 2×IDO1 (His-tag) enzyme solution (containing L-ascorbic acid, methylene blue, and catalase) was added to each well. 25 μL reaction solution without IDO1 (His-tag) enzyme was added into HPE control well. The test plate was centrifugated at 1000 rpm for 1 minute to mix well. Then, the test plate was incubated at room temperature for 30 minutes. 25 μL above 2× substrate (L-tryptophan) solution was added to each well. The test plate was centrifugated at 1000 rpm for 1 minute to mix well. The detection plate was placed on ELISA (SpectraMax M5e), the temperature was set at 25° C., and the absorbance (OD value) was measured at 320 nm every 10 minutes till 60 minutes.
Calculating the increase ratio of absorbance: the slope of the absorbance increase curve from 10 min to 60 min is derived from SpectralMax M5e. The inhibition coefficient of compound was calculated: the inhibition ratio of compound=(the absorbance increase ratio of ZPE control well−the absorbance increase ratio of compound well)/(the absorbance increase ratio of ZPE control well−the absorbance increase ratio of HPE control well)×100. Results was analyzed by Prism 5.0.

[1] = molecular target: IDO protease in HeLa cells (Homo sapiens (Human), UniProt P14902); experiment: Inhibition of IDO protease in HeLa cells (IFNγ-induced, Trp/Kyn by RapidFire/MS); format: cell-based; conditions: for IC50: HeLa cells, 25 ng/ml IFNγ, 48 hours
Sequence of IDO protease in HeLa cells (P14902 whole entry): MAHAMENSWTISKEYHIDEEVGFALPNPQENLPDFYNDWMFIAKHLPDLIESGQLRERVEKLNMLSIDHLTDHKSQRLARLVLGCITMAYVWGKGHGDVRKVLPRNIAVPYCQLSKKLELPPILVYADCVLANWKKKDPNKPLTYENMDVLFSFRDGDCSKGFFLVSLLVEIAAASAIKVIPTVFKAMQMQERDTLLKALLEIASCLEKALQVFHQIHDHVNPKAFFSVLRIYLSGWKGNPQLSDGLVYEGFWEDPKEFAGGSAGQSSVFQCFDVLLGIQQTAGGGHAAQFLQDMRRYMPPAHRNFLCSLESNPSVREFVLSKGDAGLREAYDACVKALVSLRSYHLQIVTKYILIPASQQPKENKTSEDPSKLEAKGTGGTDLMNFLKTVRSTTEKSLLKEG
From the text: 1) Experimental Materials and Apparatus • HeLa cells (ATCC, Cat. No. CCL-2) • γ interferon IFNγ (R&D, Cat. No. 285-IF-100) • DMEM High Glucose media (Invitrogen, Cat. No. 11965-084) • Fetal bovine serum FBS (Invitrogen, Cat. No. 10100-147) • Trypsin-EDTA (0.050%)(Invitrogen, Cat. No. 25300-054) • Phosphate buffer solution PBS, pH 7.4 (Invitrogen, Cat. No. 10010023) • Penicillin-Streptomycin (P/S) (Invitrogen, Cat. No. 15070063) • L-tryptophan (Trp) (Sigma, Cat. No. T8941) • L-kynurenine (Kyn) (Sigma, Cat. No. K8625) • N′-diformylkynurenine (NFK) (J&K, Cat. No. F700490) • 3-Nitro-L-tyrosine (J&K, Cat. No. N0905) • Acetonitrile (Sigma, Cat. No. 34851) • Dimethylsulfoxide DMSO (Sigma, Cat. No. D8418) • Inhibitor INCB024360 (Selleckchem, Cat. No. S7910) • Inhibitor INCB024360-analog (MedKoo, Cat. No. 205493) • Inhibitor NLG919 (Selleckchem, Cat. No. S7111) • 96 well transparent flat bottom polystyrene cell culture plate (Corning, Cat #3599) • 96 well V-bottom polypropylene plate (PE, Cat #6008290) • 96 well U-shaped bottom polypropylene plate (PE, Cat. No. 6008390) • Multidrop™ distribution box with small metal tip (Thermo, Cat. No. 24073295) • Multidrop™ distribution box of standard tube with metal tip (Thermo, Cat. No. 24072670) • Automatic filling platform (Agilent) • Multidrop™ Combi automatic liquid separator (Thermo) • Centrifugal machine (Eppendorf) • Cell incubator (Thermo) • Cell counter (Thermo) • RapidFire Mass system (Agilent)
2) Experimental Method for Compound Assay
The compound (compounds 4, 8, 9, 78, 91 of the present invention) was dissolved in DMSO to prepare a solution with a concentration of 3 mM, and then 15 μL of the compound solution is added to a 96 well plate, and serially diluted by 3 times dilution to obtain 10 points. 2 μL compound solution or DMSO (for HPE/ZPE) was transferred to a new 96 well plate. HeLa cell suspension was seeded into the cell culture plate with a density of 1×10^4 cells/well. For HPE control well, the cell culture medium for detection was DMEM, including 10% FBS, 1% P/S, and 122 μM Trp; for ZPE control well and the compound wells, the cell culture medium was DMEM, including 10% FBS, 1% P/S, […], and 25 ng/ml IFNγ. 192 μL detection medium prepared as above was added to a 96 well plate. 78 μL DMEM was added to the compound plate and thoroughly mixed, and then 8 μL compound solution diluted with DMEM was transferred to the 96 well plate containing the detection medium. The cell culture plate was taken out, and the cell culture medium was discarded, then 100 μL compound solution mentioned above was transferred to the cell culture plate. The cell culture plate was moved into the cell incubator and kept for 48 hours. When detected, the cell culture plate was taken out, and 50 μL supernatant was transferred to a new 96 well plate, to which was added 200 μL acetonitrile, and the plate was mixed well. The plate was centrifugated at 4° C. for 20 minutes (rotatory speed being 4000 rpm), and 40 μL supernatant was transferred to another 96 well plate, to which was further added 360 μL deionized water containing […] internal reference (3-nitro-L-tyrosine). The plate was fully mixed, and then the sample was detected by RapidFire/MS system. The standards of L-tryptophan (Trp) and L-kynurenine (Kyn) were dissolved in water to obtain a concentration of 10 mM, and the standard curve was performed by three times dilution. The inhibitory ratio was calculated by obtained data, and the IC50 curve was completed by processing the resultant data with Graphpad Prism5 software.

Pharmacokinetics in mice = format: in vivo, ICR mice; conditions: for Cmax: read-out: Blood concentration Cmax; for AUC: read-out: Curve area AUC; for Tmax: read-out: Peak time tmax; for MRT inf: read-out: Retention time MRTinf
From the text: 1) Experimental Materials and Apparatus: • LC-20AD HPLC system (SHIMADZU, Japan) • API4000 Triple quadrupole mass spectrometer (Applied Biosystem, USA) • PhenixWinnolin Pharmacokinetic software (Version 6.3, Certara, USA) • High speed freezing centrifuge (Thermo Fisher Scientific) • Analytical balance (SECURA225D-1CN) • Experimental animals: ICR mice (Chengdu Dashuo Experimental Animal Co., Ltd) • DMA (Sigma) • CMC-Na (Chengdu Kelong Chemical Co., Ltd) • Heparin (Chengdu Kelong Chemical Co., Ltd)
2) Experimental Methods and Results
A solution at concentration of 0.5 mg/mL was prepared. 0.2 ml of the final solution prepared was taken out and stored at −20° C. for concentration determination. Nine healthy adult ICR mice (20-30 g) were fasted overnight (free drinking water) and then administrated at a dosage of 0.2 mL/10 g by gavage. Prior to administration and 0.5, 1, 2, 4, 6, 8, 12, 24 h after administration, 0.1 mL blood was collected from the posterior orbital venous plexus and centrifuged at 4° C. for 5 min to separate the plasma, which was preserved at −20° C. for testing. Then the concentrations of tested compounds in the plasma were determined by LC/MS/MS.

[2] = ICR, mouse, 10 mg/kg, PO, 10 mpk, plasma

Sequence of human IDO1 protease (P14902 whole entry): as above

SMILES	IC50 (human IDO1 protease)	IC50 [1]	also measured
NS(=O)(=O)N1CC(CNc2nonc2/C(=N/O)Nc2ccc(F)c(Br)c2)C1 [Compound 4, N-(3-Bromo-4-fluorophenyl)-N′-hydroxyl-4-(((1-sulfamoylazetidin-3-yl)methyl)amino)-1,2,5-oxadiazole-3-formamidine]	55 nM	5 nM	inhibitory activities on IDO protease in HeLa cells (in words) [1]: excellent; half-life time compared with the reference compound INCB-24360 (in words) (Pharmacokinetics in mice): longer half-life time; Cmax (Pharmacokinetics in mice; [2]): 1080 ng/mL; AUC (Pharmacokinetics in mice; [2]): 1760 ng·h/mL; half-life (Pharmacokinetics in mice; ICR, mouse, 10 mg/kg, PO, 10 mpk, plasma, read-out: Half time t1/2 (converted)): 5.06 h; Tmax (Pharmacokinetics in mice; [2]): 0.5 h; MRT inf (Pharmacokinetics in mice; [2]): 3.28 h
NS(=O)(=O)N1CC[C@H](CNc2nonc2/C(=N/O)Nc2ccc(F)c(Br)c2)C1 [Compound 9, (R)—N-(3-bromo-4-fluorophenyl)-N′-hydroxyl-4-(((1-sulfamoylpyrrolidine-3-yl)methyl)amino)-1,2,5-oxadiazole-3-formamidine]	84 nM	15 nM	
NC(=O)N1CC(CNc2nonc2/C(=N/O)Nc2ccc(F)c(Br)c2)C1 [Compound 140, (Z)—N-(3-bromo-4-fluorophenyl)-N′-hydroxyl-4-(((1-carbamoylazetidin)-3-methyl)amino)-1,2,5-oxadiazol-3-formamidine]		75 nM	
NS(=O)(=O)N1CC(CCSc2nonc2/C(=N/O)Nc2ccc(F)c(Br)c2)C1 [Compound 149, (Z)—N-(3-bromo-4-fluorophenyl)-N′-hydroxyl-4-((2-(1-sulfamoylazetidin-3-yl)ethyl)thio)-1,2,5-oxadiazol-3-formamidine]		18 nM	
NS(=O)(=O)N1CC(F)(CNc2nonc2/C(=N/O)Nc2ccc(F)c(Br)c2)C1 [Compound 91]	128 nM		inhibitory activities on IDO protease in HeLa cells (in words) [1]: excellent
NS(=O)(=O)N1CC(CCNc2nonc2/C(=N/O)Nc2ccc(F)c(Br)c2)C1 [Compound 132, (Z)—N-(3-bromo-4-fluorophenyl)-N′-hydroxyl-4-((2-(1-sulfamoylazetidin-3-yl)ethyl)amino)-1,2,5-oxadiazol-3-formamidine]		10 nM	
NS(=O)(=O)N1CC(CSc2nonc2/C(=N/O)Nc2ccc(F)c(Br)c2)C1 [Compound 148]		14 nM	
[2H]C([2H])(Nc1nonc1/C(=N/O)Nc1ccc(F)c(Br)c1)C1CN(S(N)(=O)=O)C1 [Compound 150, (Z)—N-(3-bromo-4-fluorophenyl)-N′-hydroxyl-4-(((1-sulfadiazin-3-yl)methyl-D2)amino)-1,2,5-oxadiazol-3-carboxyoximide]	81 nM	9 nM	
NS(=O)(=O)N1CC[C@@H](CNc2nonc2/C(=N/O)Nc2ccc(F)c(Br)c2)C1 [Compound 8, (S)—N-(3-Bromo-4-fluorophenyl)-N′-hydroxyl-4-(((1-sulfamoylpyrrolidine-3-yl)methyl)amino)-1,2,5-oxadiazole-3-formamidine]	112 nM	17 nM	
NS(=O)(=O)NCCNc1nonc1C(=NO)Nc1ccc(F)c(Br)c1 [INCB24360, reference compound]			Cmax (Pharmacokinetics in mice; [2]): 992 ng/mL; AUC (Pharmacokinetics in mice; [2]): 1810 ng·h/mL; Tmax (Pharmacokinetics in mice; [2]): 0.5 h; MRT inf (Pharmacokinetics in mice; [2]): 2.03 h
CNS(=O)(=O)N1CC(CNc2nonc2C(=NO)Nc2ccc(F)c(Br)c2)C1 [Compound 78]	69 nM	13 nM	
NS(=O)(=O)N1CC(F)(CNc2nonc2C(=NO)Nc2ccc(F)c(Br)c2)C1 [Compound 91, (Z)—N-(3-bromo-4-fluorophenyl)-4-(3-fluoro-1-sulfadiazin-3-yl)methyl)amino)-N′-hydroxyl 1,2,5-oxadiazol-3-carboxyoximide]		74 nM	
